Here are results for 2 compounds from patent publication US5602239A, “5-O-desosaminylerythronolide derivatives” (Taisho Pharmaceutical Co., Ltd., priority 1993, dated 1997).

Holding throughout (format): cell-based
One test concerns S. aureus 209P-JC. In words: In vitro antibacterial activity (MIC), S. aureus 209P-JC. Particulars: Staphylococcus aureus, sensitive disc media, Japan Society of Chemotherapy method, read-out: MIC value (Minimum Inhibitory Concentration). As to the method:
(§1) The in vitro antibacterial activity of the compound of the present invention obtained in Example 9 against various experimental bacteria was measured using sensitive disc media (produced by Eiken Chemical Co.) according to the MIC measuring method specified by the Japan Society of Chemotherapy. 6-O-Methylerythromycin A was used as a comparative drug.

For a further test, the system named is S. aureus Smith 4. As to the kind of experiment: In vitro antibacterial activity (MIC), S. aureus Smith 4. The following applies: Staphylococcus aureus, SMITH4, sensitive disc media, Japan Society of Chemotherapy method, read-out: MIC value (Minimum Inhibitory Concentration). As to the method: as §1
The test system of the next test is S. epidermides IID 866. In words: In vitro antibacterial activity (MIC), S. epidermides IID 866. Particulars: sensitive disc media, Japan Society of Chemotherapy method, read-out: MIC value (Minimum Inhibitory Concentration). As to the method: as §1
For the next test, the system named is E. faecalis CSJ 1212. As to the kind of experiment: In vitro antibacterial activity (MIC), E. faecalis CSJ 1212. Particulars: Enterococcus faecalis, CSJ1212, sensitive disc media, Japan Society of Chemotherapy method, read-out: MIC value (Minimum Inhibitory Concentration). As for the experimental part: as §1
In the next test the test system is S. aureus B1. As to the kind of experiment: In vitro antibacterial activity (MIC), S. aureus B1. The following applies: Staphylococcus aureus, sensitive disc media, Japan Society of Chemotherapy method, read-out: MIC value (Minimum Inhibitory Concentration). As for the experimental part: as §1

Values after ≈ are worked out from the molar mass of the structure shown.

In the case of `CC[C@H]1OC(=O)[C@H](C)[C@@H](O[C@H]2C[C@@](C)(OC)[C@@H](O)[C@H](C)O2)[C@H](C)[C@@H](O[C@@H]2O[C@H](C)C[C@H](N(C)C)[C@H]2O)[C@](C)(OC)C[C@@H](C)C(=O)[C@H](C)[C@@H](O)[C@]1(C)O` [Comparative drug, 6-O-Methylerythromycin A], the MIC was 0.1 µg/mL (≈ 0.134 µM) in the test with S. aureus 209P-JC; 0.1 µg/mL (≈ 0.134 µM) in the test on S. aureus Smith 4; 0.1 µg/mL (≈ 0.134 µM) in the test with S. epidermides IID 866; 0.78 µg/mL (≈ 1.04 µM) with E. faecalis CSJ 1212; greater than 100 µg/mL in the test on S. aureus B1.
Take `CC[C@H]1OC(=O)[C@H](C)[C@@H](Oc2ccc([N+](=O)[O-])cc2[N+](=O)[O-])[C@H](C)[C@@H](O[C@@H]2O[C@H](C)C[C@H](N(C)C)[C@H]2O)[C@](C)(OC)C[C@@H](C)C(=O)[C@H](C)[C@H]2OC(=O)O[C@@]21C` [Example 9, 3-O-(2,4-dinitro)phenyl-5-O-desosaminyl-6-O-methylerythronolide A 11,12-cyclic carbonate]: the MIC stood at 0.1 µg/mL (≈ 0.128 µM) with S. aureus 209P-JC; 0.1 µg/mL (≈ 0.128 µM) with S. aureus Smith 4; 0.1 µg/mL (≈ 0.128 µM) in the test with S. epidermides IID 866; 0.2 µg/mL (≈ 0.256 µM) with E. faecalis CSJ 1212; 0.78 µg/mL (≈ 0.998 µM) in the test with S. aureus B1.
